Test results as given in ChEMBL document CHEMBL1909046, “DrugMatrix in vitro pharmacology data”.

molecular target: T1, Cytochrome P450 2A6 (Homo sapiens, UniProt P11509); assay: not given; conditions: bti-tn-5b1-4; further: in other assays of this panel Not Active means under 50% inhibition at 10 µM
T1 sequence (P11509 whole entry): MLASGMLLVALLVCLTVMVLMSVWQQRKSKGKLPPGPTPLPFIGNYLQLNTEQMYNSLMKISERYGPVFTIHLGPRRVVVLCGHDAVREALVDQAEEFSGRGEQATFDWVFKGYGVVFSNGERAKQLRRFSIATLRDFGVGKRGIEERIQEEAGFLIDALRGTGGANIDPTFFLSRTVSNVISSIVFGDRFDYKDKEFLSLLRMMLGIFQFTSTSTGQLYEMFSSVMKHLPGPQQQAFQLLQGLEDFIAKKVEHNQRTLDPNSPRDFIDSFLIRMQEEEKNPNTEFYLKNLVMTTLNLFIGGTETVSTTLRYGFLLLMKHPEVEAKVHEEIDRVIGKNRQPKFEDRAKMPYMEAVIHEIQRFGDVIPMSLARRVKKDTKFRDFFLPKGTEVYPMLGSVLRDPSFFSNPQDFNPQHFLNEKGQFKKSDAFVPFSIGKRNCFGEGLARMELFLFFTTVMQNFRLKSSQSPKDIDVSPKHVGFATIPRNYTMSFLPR

Row | Compound | IC50 | Ki
1 | CC1CCC(NC(=O)N(CCCl)N=O)CC1 (stereo not drawn) [SEMUSTINE] | Not Active | Not Active
2 | O=C1C[C@@H]2OCC=C3CN4CC[C@]56c7ccccc7N1[C@H]5[C@H]2[C@H]3C[C@H]46 [STRYCHNINE] | Not Active | Not Active
3 | C[N+](C)(C)CCOC(=O)CCC(=O)OCC[N+](C)(C)C.[Cl-].[Cl-] [SUCCINYLCHOLINE CHLORIDE] | Not Active | Not Active
4 | Nc1ccc(S(=O)(=O)NC(=O)c2ccccc2)cc1 [SULFABENZAMIDE] | Not Active | Not Active
5 | CCCCCCCCNC(C)C(O)c1ccc(SC(C)C)cc1 (stereo not drawn) [SULOCTIDIL] | Not Active | Not Active
6 | O=c1[nH]c(=O)n(C2CCCO2)cc1F (stereo not drawn) [TEGAFUR] | Not Active | Not Active
7 | CC(=N)S [THIOACETAMIDE] | Not Active | Not Active
8 | Cc1ccc(C(=O)c2ccc(CC(=O)O)n2C)cc1 [TOLMETIN] | Not Active | Not Active
9 | CC(=O)OCC(COC(C)=O)OC(C)=O [TRIACETIN] | Not Active | Not Active
10 | CN1CCN(CCCN2c3ccccc3Sc3ccc(C(F)(F)F)cc32)CC1 [TRIFLUOPERAZINE] | Not Active | Not Active
11 | TRANSPLATIN | Not Active | Not Active
12 | ZIRCONIUM(IV) CHLORIDE | Not Active | Not Active

molecular target: Vasopressin V1a receptor (Homo sapiens, UniProt P37288); assay: not given; type: cell membranes, Membrane; conditions: hek293; further: in other assays of this panel Not Active means under 50% inhibition at 10 µM
Sequence (P37288 whole entry): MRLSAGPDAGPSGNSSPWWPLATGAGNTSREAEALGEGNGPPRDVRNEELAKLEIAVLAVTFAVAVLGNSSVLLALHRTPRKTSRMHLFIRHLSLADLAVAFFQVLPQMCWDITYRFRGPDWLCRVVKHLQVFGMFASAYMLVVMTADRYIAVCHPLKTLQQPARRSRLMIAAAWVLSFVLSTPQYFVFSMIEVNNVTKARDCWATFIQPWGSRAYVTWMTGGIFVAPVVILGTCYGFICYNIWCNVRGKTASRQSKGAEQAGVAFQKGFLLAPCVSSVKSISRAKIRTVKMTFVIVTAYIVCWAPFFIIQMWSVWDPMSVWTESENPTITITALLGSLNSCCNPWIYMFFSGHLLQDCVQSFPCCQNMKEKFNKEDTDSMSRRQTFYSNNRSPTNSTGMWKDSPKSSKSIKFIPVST

Row | Compound | IC50 | Ki
13 | Oc1ccc2c3c1O[C@H]1[C@@H](O)CC[C@@]4(O)[C@@H](C2)N(CC2CCC2)CC[C@]314 [NALBUPHINE] | Not Active | –
14 | C[C@]12C=CC(=O)C=C1CC[C@@H]1[C@@H]2C(=O)C[C@@]2(C)[C@H]1CC[C@]2(O)C(=O)CO [PREDNISONE] | Not Active | –
15 | CC1CCC(NC(=O)N(CCCl)N=O)CC1 (stereo not drawn) [SEMUSTINE] | Not Active | –
16 | O=C1C[C@@H]2OCC=C3CN4CC[C@]56c7ccccc7N1[C@H]5[C@H]2[C@H]3C[C@H]46 [STRYCHNINE] | Not Active | –
17 | C[N+](C)(C)CCOC(=O)CCC(=O)OCC[N+](C)(C)C.[Cl-].[Cl-] [SUCCINYLCHOLINE CHLORIDE] | Not Active | –
18 | Nc1ccc(S(=O)(=O)NC(=O)c2ccccc2)cc1 [SULFABENZAMIDE] | Not Active | –
19 | CCCCCCCCNC(C)C(O)c1ccc(SC(C)C)cc1 (stereo not drawn) [SULOCTIDIL] | Not Active | –
20 | O=c1[nH]c(=O)n(C2CCCO2)cc1F (stereo not drawn) [TEGAFUR] | Not Active | –
21 | CC(=N)S [THIOACETAMIDE] | Not Active | –
22 | Cc1ccc(C(=O)c2ccc(CC(=O)O)n2C)cc1 [TOLMETIN] | Not Active | –
23 | CC(=O)OCC(COC(C)=O)OC(C)=O [TRIACETIN] | Not Active | –
24 | CN1CCN(CCCN2c3ccccc3Sc3ccc(C(F)(F)F)cc32)CC1 [TRIFLUOPERAZINE] | Not Active | –
25 | TRANSPLATIN | Not Active | Not Active
26 | ZIRCONIUM(IV) CHLORIDE | Not Active | Not Active

molecular target: Melanocortin receptor 5 (Homo sapiens, UniProt P33032); assay: not given; type: cell membranes, HEK293, Membrane; conditions: hek293; further: in other assays of this panel Not Active means under 50% inhibition at 10 µM
Sequence (P33032 whole entry): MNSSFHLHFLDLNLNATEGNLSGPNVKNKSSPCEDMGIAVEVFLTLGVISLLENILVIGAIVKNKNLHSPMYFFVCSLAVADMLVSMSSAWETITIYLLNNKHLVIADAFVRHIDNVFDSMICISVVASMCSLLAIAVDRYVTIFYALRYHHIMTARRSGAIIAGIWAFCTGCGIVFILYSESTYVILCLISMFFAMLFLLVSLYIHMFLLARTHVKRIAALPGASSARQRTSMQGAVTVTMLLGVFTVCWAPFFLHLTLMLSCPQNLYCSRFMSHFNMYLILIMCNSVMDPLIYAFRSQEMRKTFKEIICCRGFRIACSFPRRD

Row | Compound | IC50 | Ki
27 | Oc1ccc2c3c1O[C@H]1[C@@H](O)CC[C@@]4(O)[C@@H](C2)N(CC2CCC2)CC[C@]314 [NALBUPHINE] | Not Active | –
28 | C[C@]12C=CC(=O)C=C1CC[C@@H]1[C@@H]2C(=O)C[C@@]2(C)[C@H]1CC[C@]2(O)C(=O)CO [PREDNISONE] | Not Active | –
29 | CC1CCC(NC(=O)N(CCCl)N=O)CC1 (stereo not drawn) [SEMUSTINE] | Not Active | –
30 | O=C1C[C@@H]2OCC=C3CN4CC[C@]56c7ccccc7N1[C@H]5[C@H]2[C@H]3C[C@H]46 [STRYCHNINE] | Not Active | –
31 | C[N+](C)(C)CCOC(=O)CCC(=O)OCC[N+](C)(C)C.[Cl-].[Cl-] [SUCCINYLCHOLINE CHLORIDE] | Not Active | –
32 | Nc1ccc(S(=O)(=O)NC(=O)c2ccccc2)cc1 [SULFABENZAMIDE] | Not Active | –
33 | CCCCCCCCNC(C)C(O)c1ccc(SC(C)C)cc1 (stereo not drawn) [SULOCTIDIL] | Not Active | –
34 | O=c1[nH]c(=O)n(C2CCCO2)cc1F (stereo not drawn) [TEGAFUR] | Not Active | –
35 | CC(=N)S [THIOACETAMIDE] | Not Active | –
36 | Cc1ccc(C(=O)c2ccc(CC(=O)O)n2C)cc1 [TOLMETIN] | Not Active | –
37 | CC(=O)OCC(COC(C)=O)OC(C)=O [TRIACETIN] | Not Active | –
38 | CN1CCN(CCCN2c3ccccc3Sc3ccc(C(F)(F)F)cc32)CC1 [TRIFLUOPERAZINE] | Not Active | –
39 | TRANSPLATIN | Not Active | Not Active
40 | ZIRCONIUM(IV) CHLORIDE | Not Active | Not Active

molecular target: T2, Type-2 angiotensin II receptor (Homo sapiens, UniProt P50052); assay: biochemical; type: cell-based, CHO-K1; conditions: cho-k1; further: in other assays of this panel Not Active means under 50% inhibition at 10 µM
T2 sequence (P50052 whole entry): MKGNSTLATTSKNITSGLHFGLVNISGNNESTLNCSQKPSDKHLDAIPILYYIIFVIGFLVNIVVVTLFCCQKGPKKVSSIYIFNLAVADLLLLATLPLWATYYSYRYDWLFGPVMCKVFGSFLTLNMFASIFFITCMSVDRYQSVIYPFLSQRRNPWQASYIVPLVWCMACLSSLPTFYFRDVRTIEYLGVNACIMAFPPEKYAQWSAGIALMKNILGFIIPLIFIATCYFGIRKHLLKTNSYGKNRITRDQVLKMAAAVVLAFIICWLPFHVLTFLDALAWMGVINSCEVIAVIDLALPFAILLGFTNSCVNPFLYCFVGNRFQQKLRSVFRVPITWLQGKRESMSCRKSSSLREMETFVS

Row | Compound | IC50 | Ki
41 | Oc1ccc2c3c1O[C@H]1[C@@H](O)CC[C@@]4(O)[C@@H](C2)N(CC2CCC2)CC[C@]314 [NALBUPHINE] | Not Active | –
42 | C[C@]12C=CC(=O)C=C1CC[C@@H]1[C@@H]2C(=O)C[C@@]2(C)[C@H]1CC[C@]2(O)C(=O)CO [PREDNISONE] | Not Active | –
43 | CC1CCC(NC(=O)N(CCCl)N=O)CC1 (stereo not drawn) [SEMUSTINE] | Not Active | –
44 | O=C1C[C@@H]2OCC=C3CN4CC[C@]56c7ccccc7N1[C@H]5[C@H]2[C@H]3C[C@H]46 [STRYCHNINE] | Not Active | –
45 | C[N+](C)(C)CCOC(=O)CCC(=O)OCC[N+](C)(C)C.[Cl-].[Cl-] [SUCCINYLCHOLINE CHLORIDE] | Not Active | –
46 | Nc1ccc(S(=O)(=O)NC(=O)c2ccccc2)cc1 [SULFABENZAMIDE] | Not Active | –
47 | CCCCCCCCNC(C)C(O)c1ccc(SC(C)C)cc1 (stereo not drawn) [SULOCTIDIL] | Not Active | –
48 | O=c1[nH]c(=O)n(C2CCCO2)cc1F (stereo not drawn) [TEGAFUR] | Not Active | –
49 | CC(=N)S [THIOACETAMIDE] | Not Active | –
50 | Cc1ccc(C(=O)c2ccc(CC(=O)O)n2C)cc1 [TOLMETIN] | Not Active | –
51 | CC(=O)OCC(COC(C)=O)OC(C)=O [TRIACETIN] | Not Active | –
52 | CN1CCN(CCCN2c3ccccc3Sc3ccc(C(F)(F)F)cc32)CC1 [TRIFLUOPERAZINE] | Not Active | –
53 | TRANSPLATIN | Not Active | Not Active
54 | ZIRCONIUM(IV) CHLORIDE | Not Active | Not Active

molecular target: Cytochrome P450 2E1 (Homo sapiens, UniProt P05181); assay: not given; conditions: bti-tn-5b1-4; further: in other assays of this panel Not Active means under 50% inhibition at 10 µM
Sequence (P05181 whole entry): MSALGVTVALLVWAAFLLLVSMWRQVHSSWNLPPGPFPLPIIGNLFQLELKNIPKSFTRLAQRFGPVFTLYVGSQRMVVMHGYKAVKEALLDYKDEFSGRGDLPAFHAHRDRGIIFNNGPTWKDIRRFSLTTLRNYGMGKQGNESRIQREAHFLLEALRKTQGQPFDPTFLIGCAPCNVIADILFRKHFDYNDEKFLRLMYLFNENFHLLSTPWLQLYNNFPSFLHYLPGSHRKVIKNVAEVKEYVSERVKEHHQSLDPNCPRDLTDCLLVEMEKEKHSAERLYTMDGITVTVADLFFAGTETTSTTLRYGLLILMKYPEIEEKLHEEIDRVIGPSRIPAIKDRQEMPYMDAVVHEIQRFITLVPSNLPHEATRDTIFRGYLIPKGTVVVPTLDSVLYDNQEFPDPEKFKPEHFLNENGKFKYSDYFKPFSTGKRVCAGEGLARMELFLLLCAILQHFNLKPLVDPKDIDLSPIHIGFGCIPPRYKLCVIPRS

Row | Compound | IC50 | Ki
55 | CC1CCC(NC(=O)N(CCCl)N=O)CC1 (stereo not drawn) [SEMUSTINE] | Not Active | Not Active
56 | O=C1C[C@@H]2OCC=C3CN4CC[C@]56c7ccccc7N1[C@H]5[C@H]2[C@H]3C[C@H]46 [STRYCHNINE] | Not Active | Not Active
57 | C[N+](C)(C)CCOC(=O)CCC(=O)OCC[N+](C)(C)C.[Cl-].[Cl-] [SUCCINYLCHOLINE CHLORIDE] | Not Active | Not Active
58 | Nc1ccc(S(=O)(=O)NC(=O)c2ccccc2)cc1 [SULFABENZAMIDE] | Not Active | Not Active
59 | CCCCCCCCNC(C)C(O)c1ccc(SC(C)C)cc1 (stereo not drawn) [SULOCTIDIL] | Not Active | Not Active
60 | O=c1[nH]c(=O)n(C2CCCO2)cc1F (stereo not drawn) [TEGAFUR] | Not Active | Not Active
61 | CC(=N)S [THIOACETAMIDE] | Not Active | Not Active
62 | Cc1ccc(C(=O)c2ccc(CC(=O)O)n2C)cc1 [TOLMETIN] | Not Active | Not Active
63 | CC(=O)OCC(COC(C)=O)OC(C)=O [TRIACETIN] | Not Active | Not Active
64 | CN1CCN(CCCN2c3ccccc3Sc3ccc(C(F)(F)F)cc32)CC1 [TRIFLUOPERAZINE] | Not Active | Not Active
65 | TRANSPLATIN | Not Active | Not Active
66 | ZIRCONIUM(IV) CHLORIDE | Not Active | Not Active

molecular target: Sigma non-opioid intracellular receptor 1 (Homo sapiens, UniProt Q99720); assay: DRUGMATRIX: Sigma1 radioligand binding (ligand: [3H] Haloperidol); type: cell membranes, Jurkat, Membrane; conditions: Not Active = under 50% inhibition at 10 µM; read-out: IC50
Sequence (Q99720 whole entry): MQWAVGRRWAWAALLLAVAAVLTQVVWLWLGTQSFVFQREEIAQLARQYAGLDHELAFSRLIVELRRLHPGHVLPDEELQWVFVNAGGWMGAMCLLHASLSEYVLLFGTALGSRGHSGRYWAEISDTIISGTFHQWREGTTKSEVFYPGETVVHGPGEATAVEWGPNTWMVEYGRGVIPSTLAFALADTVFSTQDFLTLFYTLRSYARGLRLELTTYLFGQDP

Row | Compound | IC50 [nM]
67 | CCCCCCCCNC(C)C(O)c1ccc(SC(C)C)cc1 (stereo not drawn) [SULOCTIDIL] | 117

same assay, conditions: Not Active = under 50% inhibition at 10 µM; read-out: Ki

Row | Compound | Ki [nM]
68 | CCCCCCCCNC(C)C(O)c1ccc(SC(C)C)cc1 (stereo not drawn) [SULOCTIDIL] | 49.3

same assay, conditions: jurkat; Not Active = under 50% inhibition at 10 µM

Row | Compound | IC50 | Ki
69 | Oc1ccc2c3c1O[C@H]1[C@@H](O)CC[C@@]4(O)[C@@H](C2)N(CC2CCC2)CC[C@]314 [NALBUPHINE] | Not Active | –
70 | C[C@]12C=CC(=O)C=C1CC[C@@H]1[C@@H]2C(=O)C[C@@]2(C)[C@H]1CC[C@]2(O)C(=O)CO [PREDNISONE] | Not Active | –
71 | CC1CCC(NC(=O)N(CCCl)N=O)CC1 (stereo not drawn) [SEMUSTINE] | Not Active | –
72 | O=C1C[C@@H]2OCC=C3CN4CC[C@]56c7ccccc7N1[C@H]5[C@H]2[C@H]3C[C@H]46 [STRYCHNINE] | Not Active | –
73 | C[N+](C)(C)CCOC(=O)CCC(=O)OCC[N+](C)(C)C.[Cl-].[Cl-] [SUCCINYLCHOLINE CHLORIDE] | Not Active | –
74 | Nc1ccc(S(=O)(=O)NC(=O)c2ccccc2)cc1 [SULFABENZAMIDE] | Not Active | –
75 | O=c1[nH]c(=O)n(C2CCCO2)cc1F (stereo not drawn) [TEGAFUR] | Not Active | –
76 | CC(=N)S [THIOACETAMIDE] | Not Active | –
77 | Cc1ccc(C(=O)c2ccc(CC(=O)O)n2C)cc1 [TOLMETIN] | Not Active | –
78 | CC(=O)OCC(COC(C)=O)OC(C)=O [TRIACETIN] | Not Active | –
79 | CN1CCN(CCCN2c3ccccc3Sc3ccc(C(F)(F)F)cc32)CC1 [TRIFLUOPERAZINE] | Not Active | –
80 | TRANSPLATIN | Not Active | Not Active
81 | ZIRCONIUM(IV) CHLORIDE | Not Active | Not Active
